# Data taken from patent publication US20250026721A1, “COMPOUNDS AND METHODS FOR MODULATING RAS-PI3K” (Vividion Therapeutics, Inc., priority 2023, published 2025).
# Assays:
# [1] = target: T1, PIK3CA (Homo sapiens, UniProt P42336); assay: In vitro ELISA target engagement assay for PIK3CA in Jurkat cellular lysate (competition with PIK3CA Biotin Probe); format: binding; settings: 1 hour at rt, then 500 nM PIK3CA Biotin Probe, read-out: Elisa Target Engagement Assay (TE50)
# T1 construct: endogenous in cells; host or cells: Jurkat cell lysate
# T1 sequence (P42336 whole entry): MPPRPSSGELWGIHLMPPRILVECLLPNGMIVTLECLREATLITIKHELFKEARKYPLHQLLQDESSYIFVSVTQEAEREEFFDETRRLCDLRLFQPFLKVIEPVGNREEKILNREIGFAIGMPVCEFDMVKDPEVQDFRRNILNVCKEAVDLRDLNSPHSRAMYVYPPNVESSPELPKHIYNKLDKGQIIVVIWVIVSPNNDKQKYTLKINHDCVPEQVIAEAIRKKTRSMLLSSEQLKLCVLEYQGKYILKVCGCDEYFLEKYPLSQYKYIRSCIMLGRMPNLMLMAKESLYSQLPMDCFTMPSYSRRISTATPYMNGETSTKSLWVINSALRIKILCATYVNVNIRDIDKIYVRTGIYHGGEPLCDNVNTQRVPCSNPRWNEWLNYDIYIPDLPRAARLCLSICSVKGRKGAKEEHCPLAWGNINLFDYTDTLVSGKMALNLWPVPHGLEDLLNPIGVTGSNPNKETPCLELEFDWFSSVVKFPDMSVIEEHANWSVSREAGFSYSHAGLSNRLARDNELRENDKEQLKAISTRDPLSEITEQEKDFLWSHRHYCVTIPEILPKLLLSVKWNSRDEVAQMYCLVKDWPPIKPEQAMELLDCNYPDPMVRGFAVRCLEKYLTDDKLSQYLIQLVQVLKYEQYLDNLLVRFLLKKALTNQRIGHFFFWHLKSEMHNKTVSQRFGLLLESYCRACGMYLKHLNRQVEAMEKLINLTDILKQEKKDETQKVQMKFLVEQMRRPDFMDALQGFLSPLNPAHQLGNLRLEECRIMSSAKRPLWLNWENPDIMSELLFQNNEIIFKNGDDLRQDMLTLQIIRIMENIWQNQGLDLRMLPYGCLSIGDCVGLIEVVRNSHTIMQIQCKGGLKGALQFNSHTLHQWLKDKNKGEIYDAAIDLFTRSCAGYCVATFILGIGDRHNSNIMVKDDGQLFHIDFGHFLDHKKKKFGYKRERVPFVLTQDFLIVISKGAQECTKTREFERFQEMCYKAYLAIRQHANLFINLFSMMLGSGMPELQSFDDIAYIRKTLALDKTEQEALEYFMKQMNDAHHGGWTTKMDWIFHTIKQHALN
# T1 sequence (P27986 whole entry partner): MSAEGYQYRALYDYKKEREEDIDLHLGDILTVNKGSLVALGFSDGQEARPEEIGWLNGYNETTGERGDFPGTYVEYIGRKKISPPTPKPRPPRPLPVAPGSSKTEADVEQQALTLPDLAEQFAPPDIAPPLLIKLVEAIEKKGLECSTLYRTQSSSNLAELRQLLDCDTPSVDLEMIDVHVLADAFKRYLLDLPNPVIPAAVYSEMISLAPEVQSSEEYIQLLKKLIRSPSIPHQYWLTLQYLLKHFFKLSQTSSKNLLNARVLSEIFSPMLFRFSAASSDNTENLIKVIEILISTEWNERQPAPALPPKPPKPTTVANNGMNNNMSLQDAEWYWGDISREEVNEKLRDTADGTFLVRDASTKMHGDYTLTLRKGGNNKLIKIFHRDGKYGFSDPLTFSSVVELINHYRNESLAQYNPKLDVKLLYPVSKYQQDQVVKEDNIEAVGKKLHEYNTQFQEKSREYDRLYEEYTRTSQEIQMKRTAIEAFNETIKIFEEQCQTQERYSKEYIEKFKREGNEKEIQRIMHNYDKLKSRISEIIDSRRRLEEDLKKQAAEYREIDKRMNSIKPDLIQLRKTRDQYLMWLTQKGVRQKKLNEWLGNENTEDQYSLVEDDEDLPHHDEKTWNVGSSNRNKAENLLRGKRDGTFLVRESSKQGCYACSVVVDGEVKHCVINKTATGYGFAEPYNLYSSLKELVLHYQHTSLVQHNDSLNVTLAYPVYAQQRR
# Summary of the method: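 Competition format in Jurkat lysate: compound (serial dilutions, top 200 μM) for 1 h at rt, then 500 nM final biotinylated PIK3CA probe for 1 h at rt. Sandwich ELISA with capture antibody and Neutravidin-HRP luminescence read-out measured probe-labelled PIK3CA, giving TE50.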
# [2] = test system: pAKT(S473) in FaDu cell line; assay: In vitro Phospho-AKT(S473) HTRF analysis in FaDu cells; format: cell-based; settings: Homo sapiens, 0.5 h; for IC50: FaDu cells, 30 minutes at 37° C.; for Emax: FaDu, read-out: FaDu pAKT Imax % control
# Method: Example 5. In Vitro Phosgho-AKT(S473) Analysis
# Functional activity of the compounds to inhibit pAKT were assessed in FaDu or H358 cell lines as indicated below.
# • Complete Media • FBS, Corning catalog #35-010-CV • Anti-Anti, Gibco catalog #15240-062 • 96 well plate, Corning catalog #3610 • TrypLE, Gibco catalog #12604013 • Phospho-AKT(S473) HTRF kit, Cisbio catalog #64AKSPET
# Cells were detached from the tissue culture flask with TrypLE. The cells were pelleted at 500×g for 5 min, TrypLe was removed and then resuspended in the necessary volume of media+1% FBS to give the appropriate cell density (17,500 cells/mL for FaDu; 20,000 cells/mL for H358). 100 μL of cell suspension/well was dispensed into the 96-well plate while keeping the outer wells of the plate free of cells and filled with PBS to prevent evaporation of interior wells. The plate was incubated at 37° C. and allowed to adhere overnight. The cells were treated with a dose response of compound and incubated at 37° C. for 30 minutes. The cells were then processed and pAKT(S473) levels were assessed following the specifications of the Cisbio HTRF kit.
IC50 [1] [nM],IC50 [2] [nM],Structure (SMILES),Emax [2] [%]
215,136,"C[C@H](/C=C\S(C)(=O)=O)NC(=O)[C@@]1(F)CCCN(C(=O)[C@H]2CN(CC(F)(F)F)C[C@H]2c2cccc(F)c2Cl)CC1 (single isomer, unassigned) [Compound 168, (R)-1-((3*R,4*R)-4-(2-chloro-3-fluorophenyl)-1-(2,2,2-trifluoroethyl)pyrrolidine-3-carbonyl)-4-fluoro-N-((R,Z)-4-(methylsulfonyl)but-3-en-2-yl)azepane-4-carboxamide]",90.6
760,484,"Cc1ccc(Cl)c([C@@H]2CN(CC(F)(F)F)C[C@@H]2C(=O)N2CCC[C@](F)(C(=O)N[C@H](C)/C=C\S(C)(=O)=O)CC2)c1 (single isomer, unassigned) [Compound 170, (R)-1-((3*R,4*R)-4-(2-chloro-5-methylphenyl)-1-(2,2,2-trifluoroethyl)pyrrolidine-3-carbonyl)-4-fluoro-N-((R,Z)-4-(methylsulfonyl)but-3-en-2-yl)azepane-4-carboxamide]",83.2
580,505,"Cc1cccc([C@@H]2CN(CC(F)(F)F)C[C@@H]2C(=O)N2CCC[C@](F)(C(=O)N[C@H](C)/C=C\S(C)(=O)=O)CC2)c1Cl (single isomer, unassigned) [Compound 172, (R)-1-((3*R,4*R)-4-(2-chloro-3-methylphenyl)-1-(2,2,2-trifluoroethyl)pyrrolidine-3-carbonyl)-4-fluoro-N-((R,Z)-4-(methylsulfonyl)but-3-en-2-yl)azepane-4-carboxamide]",97.9
276,168,"C[C@H]1C[C@](F)(C(=O)N[C@@H]2C=CS(=O)(=O)C2)CCN1C(=O)[C@H]1CN(CC(F)(F)F)C[C@H]1c1ccccc1Cl (single isomer, unassigned) [Compound 174, (2*S,4*S)-1-((3R,4R)-4-(2-chlorophenyl)-1-(2,2,2-trifluoroethyl)pyrrolidine-3-carbonyl)-N-((R)-1,1-dioxido-2,3-dihydrothiophen-3-yl)-4-fluoro-2-methylpiperidine-4-carboxamide]",91.8
140,100,"C[C@@H](NC(=O)C1(F)CCN(S(=O)(=O)c2ccc(Br)cc2-c2ccccc2Cl)CC1)C1=CS(=O)(=O)C1 (single isomer, unassigned) [Compound 234, (*R)-1-((5-bromo-2′-chloro-[1,1′-biphenyl]-2-yl)sulfonyl)-N-(1-(1,1-dioxido-2H-thiet-3-yl)ethyl)-4-fluoropiperidine-4-carboxamide]",
55,73.6,"C[C@H](/C=C\S(=O)(=O)[C@@H]1CCN(C)C1)NC(=O)C1(F)CCN(S(=O)(=O)c2ccc(Br)cc2-c2ccccc2Cl)CC1 (single isomer, unassigned) [Compound 237, 1-((5-bromo-2′-chloro-[1,1′-biphenyl]-2-yl)sulfonyl)-4-fluoro-N-((R,Z)-4-(((*R)-1-methylpyrrolidin-3-yl)sulfonyl)but-3-en-2-yl)piperidine-4-carboxamide]",
25,29.2,"C[C@H](/C=C\S(=O)(=O)[C@H]1CCN(C)C1)NC(=O)C1(F)CCN(S(=O)(=O)c2ccc(Br)cc2-c2ccccc2Cl)CC1 (single isomer, unassigned) [Compound 238, 1-((5-bromo-2′-chloro-[1,1′-biphenyl]-2-yl)sulfonyl)-4-fluoro-N-((R,Z)-4-(((*S)-1-methylpyrrolidin-3-yl)sulfonyl)but-3-en-2-yl)piperidine-4-carboxamide]",
120,437,"CS(=O)(=O)/C=C\[C@H](CC(F)(F)F)NC(=O)C1(F)CCN(S(=O)(=O)c2ccc(Br)cc2-c2ccccc2Cl)CC1 (single isomer, unassigned) [Compound 240, (*S,Z)-1-((5-bromo-2′-chloro-[1,1′-biphenyl]-2-yl)sulfonyl)-4-fluoro-N-(5,5,5-trifluoro-1-(methylsulfonyl)pent-1-en-3-yl)piperidine-4-carboxamide]",
850,743,"C[C@H](/C=C\S(C)(=O)=O)NC(=O)C1(F)CCN(S(=O)(=O)c2ccc(Br)cc2-c2cccc(Br)c2)CC1 [Compound 58, (R,Z)-1-((3′,5-dibromo-[1,1′-biphenyl]-2-yl)sulfonyl)-4-fluoro-N-(4-(methylsulfonyl)but-3-en-2-yl)piperidine-4-carboxamide]",97.5
340,292,"CC(=O)c1ccc(S(=O)(=O)N2CCC(F)(C(=O)N[C@H](C)/C=C/C(=O)N3CC(F)(F)C3)CC2)c(-c2ccccc2Cl)c1 [Compound 138, (R,E)-1-((5-acetyl-2′-chloro-[1,1′-biphenyl]-2-yl)sulfonyl)-N-(5-(3,3-difluoroazetidin-1-yl)-5-oxopent-3-en-2-yl)-4-fluoropiperidine-4-carboxamide]",93.5
350,427,"CC(O)c1ccc(S(=O)(=O)N2CCC(F)(C(=O)N[C@H](C)/C=C/C(=O)N3CC(F)(F)C3)CC2)c(-c2ccccc2Cl)c1 (stereo partly drawn) [Compound 140, 1-((2′-chloro-5-(1-hydroxyethyl)-[1,1′-biphenyl]-2-yl)sulfonyl)-N-((R,E)-5-(3,3-difluoroazetidin-1-yl)-5-oxopent-3-en-2-yl)-4-fluoropiperidine-4-carboxamide]",87.7
66.5,117,"C[C@H](/C=C\S(C)(=O)=O)NC(=O)[C@]1(F)CCN(S(=O)(=O)c2ccc(Br)cc2-c2ccccc2Cl)[C@H](C)C1 [Compound 143, (2R,4S)-1-((5-bromo-2′-chloro-[1,1′-biphenyl]-2-yl)sulfonyl)-4-fluoro-2-methyl-N-((R,Z)-4-(methylsulfonyl)but-3-en-2-yl)piperidine-4-carboxamide]",111
270,131,"C[C@H](/C=C\S(C)(=O)=O)NC(=O)[C@]1(F)CCN(S(=O)(=O)c2ccc(Br)cc2-c2cccc(Cl)c2)[C@H](C)C1 [Compound 145, (2R,4S)-1-((5-bromo-3′-chloro-[1,1′-biphenyl]-2-yl)sulfonyl)-4-fluoro-2-methyl-N-((R,Z)-4-(methylsulfonyl)but-3-en-2-yl)piperidine-4-carboxamide]",102
161,248,"COCc1ccc(S(=O)(=O)N2CC[C@@](F)(C(=O)N[C@H](C)/C=C\S(C)(=O)=O)C[C@H]2C)c(-c2ccccc2Cl)c1 [Compound 149, (2R,4S)-1-((2′-chloro-5-(methoxymethyl)-[1,1′-biphenyl]-2-yl)sulfonyl)-4-fluoro-2-methyl-N-((R,Z)-4-(methylsulfonyl)but-3-en-2-yl)piperidine-4-carboxamide]",109
183,204,"C[C@H](/C=C/C(=O)N1CC(F)(F)C1)NC(=O)[C@]1(F)CCN(S(=O)(=O)c2ccc(Br)cc2-c2ccccc2Cl)[C@H](C)C1 [Compound 153, (2R,4S)-1-((5-bromo-2′-chloro-[1,1′-biphenyl]-2-yl)sulfonyl)-N-((R,E)-5-(3,3-difluoroazetidin-1-yl)-5-oxopent-3-en-2-yl)-4-fluoro-2-methylpiperidine-4-carboxamide]",104
300,305,"C[C@H](/C=C/C(=O)N1CC(F)(F)C1)NC(=O)[C@]1(F)CCN(S(=O)(=O)c2ccc(Br)cc2-c2cccc(Cl)c2)[C@H](C)C1 [Compound 155, (2R,4S)-1-((5-bromo-3′-chloro-[1,1′-biphenyl]-2-yl)sulfonyl)-N-((R,E)-5-(3,3-difluoroazetidin-1-yl)-5-oxopent-3-en-2-yl)-4-fluoro-2-methylpiperidine-4-carboxamide]",106
520,348,"COCc1ccc(S(=O)(=O)N2CC[C@@](F)(C(=O)N[C@H](C)/C=C/C(=O)N3CC(F)(F)C3)C[C@H]2C)c(-c2ccccc2Cl)c1 [Compound 156, (2R,4S)-1-((2′-chloro-5-(methoxymethyl)-[1,1′-biphenyl]-2-yl)sulfonyl)-N-((R,E)-5-(3,3-difluoroazetidin-1-yl)-5-oxopent-3-en-2-yl)-4-fluoro-2-methylpiperidine-4-carboxamide]",99.2
370,834,"O=C([C@H]1CN(CC(F)(F)F)C[C@H]1c1ccccc1Cl)N1CCC(F)(C(=O)N[C@@H]2C=CS(=O)(=O)C2)CC1 [Compound 164, 1-((3R,4R)-4-(2-chlorophenyl)-1-(2,2,2-trifluoroethyl)pyrrolidine-3-carbonyl)-N—((R)-1,1-dioxido-2,3-dihydrothiophen-3-yl)-4-fluoropiperidine-4-carboxamide]",103
750,679,"O=C([C@H]1CN(CC(F)(F)F)C[C@H]1c1ccccc1Cl)N1CCC[C@](F)(C(=O)N[C@@H]2C=CS(=O)(=O)C2)CC1 [Compound 176, (R)-1-((3R,4R)-4-(2-chlorophenyl)-1-(2,2,2-trifluoroethyl)pyrrolidine-3-carbonyl)-N-((R)-1,1-dioxido-2,3-dihydrothiophen-3-yl)-4-fluoroazepane-4-carboxamide]",83.3
